Source: patent publication US12252524B2, “GIP/GLP1 co-agonist compounds” (Eli Lilly and Company, priority 2018, dated 2025)
Square brackets hold non-standard residues; d marks the D form. Peptide text beside a SMILES is read from it. αMePhe(2-F) = C[C@](N)(Cc1ccccc1F)C(=O)O; αMeL = CC(C)C[C@](C)(N)C(=O)O; Orn = NCCC[C@H](N)C(=O)O; Aib = CC(C)(N)C(=O)O

How the values were obtained:
[1] = target: human GLP-1 receptor (GLP-1R) (Homo sapiens, UniProt P43220); assay: cAMP pharmacological functional assay in presence of casein, hGLP-1R; type: cell-based; conditions: HEK293 cells expressing hGLP-1R, 0.1% Casein, geometric mean; read-out: hGLP1R cAMP Rel EC50 nM (SEM, n)
human GLP-1 receptor (GLP-1R), sequence (P43220 24-463): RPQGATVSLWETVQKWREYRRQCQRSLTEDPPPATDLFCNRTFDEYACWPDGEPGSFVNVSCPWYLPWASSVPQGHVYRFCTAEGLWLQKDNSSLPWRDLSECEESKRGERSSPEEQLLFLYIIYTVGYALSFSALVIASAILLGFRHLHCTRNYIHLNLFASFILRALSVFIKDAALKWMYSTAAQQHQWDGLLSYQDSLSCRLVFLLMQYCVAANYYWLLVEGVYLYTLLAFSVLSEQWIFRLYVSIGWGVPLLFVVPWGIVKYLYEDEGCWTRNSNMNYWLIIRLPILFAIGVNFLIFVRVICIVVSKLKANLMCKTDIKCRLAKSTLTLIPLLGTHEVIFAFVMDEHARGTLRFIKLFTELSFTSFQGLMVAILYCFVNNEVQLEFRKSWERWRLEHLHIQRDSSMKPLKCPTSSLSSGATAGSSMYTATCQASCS

[2] = target: T1, gastric inhibitory peptide receptor (GIPR) (Homo sapiens, UniProt P48546); assay: cAMP pharmacological functional assay in presence of casein, hGIPR; type: cell-based; conditions: HEK293 cells expressing hGIPR, 0.1% Casein, geometric mean; read-out: hGIPR cAMP Rel EC50 nM (SEM, n)
T1 sequence (P48546 22-466): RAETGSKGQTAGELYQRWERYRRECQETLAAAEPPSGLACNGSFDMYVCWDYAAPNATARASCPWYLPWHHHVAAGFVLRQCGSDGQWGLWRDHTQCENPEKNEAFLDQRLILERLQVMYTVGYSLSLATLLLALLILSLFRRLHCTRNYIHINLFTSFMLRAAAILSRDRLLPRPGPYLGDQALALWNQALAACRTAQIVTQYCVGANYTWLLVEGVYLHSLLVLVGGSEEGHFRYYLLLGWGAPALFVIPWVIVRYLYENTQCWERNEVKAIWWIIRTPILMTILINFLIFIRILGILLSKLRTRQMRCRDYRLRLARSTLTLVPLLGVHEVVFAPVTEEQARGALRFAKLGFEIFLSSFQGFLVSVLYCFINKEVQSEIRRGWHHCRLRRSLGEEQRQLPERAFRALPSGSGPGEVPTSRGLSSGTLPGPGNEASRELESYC

SMILES | EC50 [1] | EC50 [2]
CC[C@H](C)[C@H](NC(=O)[C@H](CC(C)C)NC(=O)[C@H](Cc1ccc(O)cc1)NC(=O)[C@@H](CCC(=O)O)NC(=O)[C@@H](NC(=O)[C@H](Cc1ccccc1)NC(=O)[C@H](CCC(=O)O)NC(=O)C(C)(C)NC(=O)[C@H](CCC(N)=O)NC(=O)[C@H](C)NC(=O)[C@H](CCCCN)NC(=O)[C@H](CCC(=O)O)NC(=O)[C@H](CC(=O)O)NC(=O)[C@H](CC(C)C)NC(=O)[C@](C)(CC(C)C)NC(=O)[C@@H](NC(=O)[C@H](CO)NC(=O)[C@H](Cc1ccc(O)cc1)NC(=O)[C@H](CC(=O)O)NC(=O)[C@H](CO)NC(=O)[C@@H](NC(=O)[C@](C)(Cc1ccccc1F)NC(=O)[C@@H](NC(=O)CNC(=O)[C@H](CCC(=O)O)NC(=O)C(C)(C)NC(=O)[C@@H](N)Cc1ccc(O)cc1)[C@@H](C)O)[C@@H](C)O)[C@@H](C)CC)[C@@H](C)CC)C(=O)N[C@@H](CCC(=O)O)C(=O)NCC(=O)NCC(=O)N1CCC[C@H]1C(=O)N[C@@H](CO)C(=O)N[C@@H](CO)C(=O)NCC(=O)N[C@@H](C)C(=O)N1CCC[C@H]1C(=O)N1CCC[C@H]1C(=O)N1CCC[C@H]1C(=O)N[C@@H](CO)C(N)=O [Example 276] (H-Y[Aib]EGT[αMePhe(2-F)]TSDYSI[αMeL]LDEKAQ[Aib]EFI[dE]YLIEGGPSSGAPPPS-NH2) | 0.108 nM | 0.0757 nM
CC[C@H](C)[C@H](NC(=O)[C@H](CC(C)C)NC(=O)[C@H](Cc1ccc(O)cc1)NC(=O)[C@@H](CCC(=O)O)NC(=O)[C@@H](NC(=O)[C@H](Cc1ccccc1)NC(=O)[C@H](CCC(=O)O)NC(=O)C(C)(C)NC(=O)[C@H](CCC(N)=O)NC(=O)[C@H](C)NC(=O)[C@H](CCC(N)=O)NC(=O)[C@H](CCC(=O)O)NC(=O)[C@H](CC(=O)O)NC(=O)[C@H](CC(C)C)NC(=O)[C@](C)(CC(C)C)NC(=O)[C@@H](NC(=O)[C@H](CO)NC(=O)[C@H](Cc1ccc(O)cc1)NC(=O)[C@H](CC(=O)O)NC(=O)[C@H](CO)NC(=O)[C@@H](NC(=O)[C@](C)(Cc1ccccc1F)NC(=O)[C@@H](NC(=O)CNC(=O)[C@H](CCC(=O)O)NC(=O)C(C)(C)NC(=O)[C@@H](N)Cc1ccc(O)cc1)[C@@H](C)O)[C@@H](C)O)[C@@H](C)CC)[C@@H](C)CC)C(=O)N[C@@H](CCC(=O)O)C(=O)NCC(=O)NCC(=O)N1CCC[C@H]1C(=O)N[C@@H](CO)C(=O)N[C@@H](CO)C(=O)NCC(=O)N[C@@H](C)C(=O)N1CCC[C@H]1C(=O)N1CCC[C@H]1C(=O)N1CCC[C@H]1C(=O)N[C@@H](CO)C(N)=O [Example 277] (H-Y[Aib]EGT[αMePhe(2-F)]TSDYSI[αMeL]LDEQAQ[Aib]EFI[dE]YLIEGGPSSGAPPPS-NH2; N-terminus assumed) | 0.133 nM | 0.0554 nM
CC[C@H](C)[C@H](NC(=O)[C@H](CC(C)C)NC(=O)[C@H](Cc1ccc(O)cc1)NC(=O)[C@@H](CCC(=O)O)NC(=O)[C@@H](NC(=O)[C@H](Cc1ccccc1)NC(=O)[C@H](CCC(=O)O)NC(=O)C(C)(C)NC(=O)[C@H](CCC(N)=O)NC(=O)[C@H](C)NC(=O)[C@H](CCCCN)NC(=O)[C@H](CCC(=O)O)NC(=O)[C@H](CC(=O)O)NC(=O)[C@H](CC(C)C)NC(=O)[C@](C)(CC(C)C)NC(=O)[C@@H](NC(=O)[C@H](CO)NC(=O)[C@H](Cc1ccc(O)cc1)NC(=O)[C@H](CC(=O)O)NC(=O)[C@H](CO)NC(=O)[C@@H](NC(=O)[C@](C)(Cc1ccccc1F)NC(=O)[C@@H](NC(=O)CNC(=O)[C@H](CCC(=O)O)NC(=O)C(C)(C)NC(=O)[C@@H](N)Cc1ccc(O)cc1)[C@@H](C)O)[C@@H](C)O)[C@@H](C)CC)[C@@H](C)CC)C(=O)N[C@@H](CCC(=O)O)C(=O)NCC(=O)NCC(=O)N1CCC[C@H]1C(=O)N[C@@H](CO)C(=O)N[C@@H](CO)C(=O)NCC(=O)N[C@@H](C)C(=O)N1CCC[C@H]1C(=O)N1CCC[C@H]1C(=O)N1CCC[C@H]1C(=O)N[C@@H](CO)C(=O)N[C@@H](CS)C(N)=O [Example 278] (H-Y[Aib]EGT[αMePhe(2-F)]TSDYSI[αMeL]LDEKAQ[Aib]EFI[dE]YLIEGGPSSGAPPPSC-NH2; N-terminus assumed) | 0.123 nM | 0.293 nM
CC[C@H](C)[C@H](NC(=O)[C@H](CC(C)C)NC(=O)[C@H](Cc1ccc(O)cc1)NC(=O)[C@@H](CCC(=O)O)NC(=O)[C@@H](NC(=O)[C@H](Cc1ccccc1)NC(=O)[C@H](CCC(=O)O)NC(=O)C(C)(C)NC(=O)[C@H](CCC(N)=O)NC(=O)[C@H](C)NC(=O)[C@H](CCC(N)=O)NC(=O)[C@H](CCC(=O)O)NC(=O)[C@H](CC(=O)O)NC(=O)[C@H](CC(C)C)NC(=O)[C@](C)(CC(C)C)NC(=O)[C@@H](NC(=O)[C@H](CO)NC(=O)[C@H](Cc1ccc(O)cc1)NC(=O)[C@H](CC(=O)O)NC(=O)[C@H](CO)NC(=O)[C@@H](NC(=O)[C@](C)(Cc1ccccc1F)NC(=O)[C@@H](NC(=O)CNC(=O)[C@H](CCC(=O)O)NC(=O)C(C)(C)NC(=O)[C@@H](N)Cc1ccc(O)cc1)[C@@H](C)O)[C@@H](C)O)[C@@H](C)CC)[C@@H](C)CC)C(=O)N[C@@H](CCC(=O)O)C(=O)NCC(=O)NCC(=O)N1CCC[C@H]1C(=O)N[C@@H](CO)C(=O)N[C@@H](CO)C(=O)NCC(=O)N[C@@H](C)C(=O)N1CCC[C@H]1C(=O)N1CCC[C@H]1C(=O)N1CCC[C@H]1C(=O)N[C@@H](CO)C(=O)N[C@@H](CS)C(N)=O [Example 279] (H-Y[Aib]EGT[αMePhe(2-F)]TSDYSI[αMeL]LDEQAQ[Aib]EFI[dE]YLIEGGPSSGAPPPSC-NH2) | 0.11 nM | 0.564 nM
CC[C@H](C)[C@H](NC(=O)[C@H](CC(C)C)NC(=O)[C@H](Cc1ccc(O)cc1)NC(=O)[C@@H](CCC(=O)O)NC(=O)[C@@H](NC(=O)[C@H](Cc1ccccc1)NC(=O)[C@H](CCC(=O)O)NC(=O)C(C)(C)NC(=O)[C@H](CCC(N)=O)NC(=O)[C@H](C)NC(=O)[C@H](CCCCN)NC(=O)[C@H](CCCN)NC(=O)[C@H](CC(=O)O)NC(=O)[C@H](CC(C)C)NC(=O)[C@](C)(CC(C)C)NC(=O)[C@@H](NC(=O)[C@H](CO)NC(=O)[C@H](Cc1ccc(O)cc1)NC(=O)[C@H](CC(=O)O)NC(=O)[C@H](CO)NC(=O)[C@@H](NC(=O)[C@](C)(Cc1ccccc1F)NC(=O)[C@@H](NC(=O)CNC(=O)[C@H](CCC(=O)O)NC(=O)C(C)(C)NC(=O)[C@@H](N)Cc1ccc(O)cc1)[C@@H](C)O)[C@@H](C)O)[C@@H](C)CC)[C@@H](C)CC)C(=O)N[C@@H](CCC(=O)O)C(=O)NCC(=O)NCC(=O)N1CCC[C@H]1C(=O)N[C@@H](CO)C(=O)N[C@@H](CO)C(=O)NCC(=O)N[C@@H](C)C(=O)N1CCC[C@H]1C(=O)N1CCC[C@H]1C(=O)N1CCC[C@H]1C(=O)N[C@@H](CO)C(N)=O [Example 280] (H-Y[Aib]EGT[αMePhe(2-F)]TSDYSI[αMeL]LD[Orn]KAQ[Aib]EFI[dE]YLIEGGPSSGAPPPS-NH2) | 0.0767 nM | 0.204 nM
CC[C@H](C)[C@H](NC(=O)[C@H](CC(C)C)NC(=O)[C@H](Cc1ccc(O)cc1)NC(=O)[C@@H](CCC(=O)O)NC(=O)[C@@H](NC(=O)[C@H](Cc1ccccc1)NC(=O)[C@H](CCC(=O)O)NC(=O)C(C)(C)NC(=O)[C@H](CCC(N)=O)NC(=O)[C@H](C)NC(=O)[C@H](CCC(N)=O)NC(=O)[C@H](CCCN)NC(=O)[C@H](CC(=O)O)NC(=O)[C@H](CC(C)C)NC(=O)[C@](C)(CC(C)C)NC(=O)[C@@H](NC(=O)[C@H](CO)NC(=O)[C@H](Cc1ccc(O)cc1)NC(=O)[C@H](CC(=O)O)NC(=O)[C@H](CO)NC(=O)[C@@H](NC(=O)[C@](C)(Cc1ccccc1F)NC(=O)[C@@H](NC(=O)CNC(=O)[C@H](CCC(=O)O)NC(=O)C(C)(C)NC(=O)[C@@H](N)Cc1ccc(O)cc1)[C@@H](C)O)[C@@H](C)O)[C@@H](C)CC)[C@@H](C)CC)C(=O)N[C@@H](CCC(=O)O)C(=O)NCC(=O)NCC(=O)N1CCC[C@H]1C(=O)N[C@@H](CO)C(=O)N[C@@H](CO)C(=O)NCC(=O)N[C@@H](C)C(=O)N1CCC[C@H]1C(=O)N1CCC[C@H]1C(=O)N1CCC[C@H]1C(=O)N[C@@H](CO)C(N)=O [Example 281] (H-Y[Aib]EGT[αMePhe(2-F)]TSDYSI[αMeL]LD[Orn]QAQ[Aib]EFI[dE]YLIEGGPSSGAPPPS-NH2) | 0.16 nM | 0.166 nM
CC[C@H](C)[C@H](NC(=O)[C@H](CC(C)C)NC(=O)[C@H](Cc1ccc(O)cc1)NC(=O)[C@@H](CCC(=O)O)NC(=O)[C@@H](NC(=O)[C@H](Cc1ccccc1)NC(=O)[C@H](CCC(=O)O)NC(=O)C(C)(C)NC(=O)[C@H](CCC(N)=O)NC(=O)[C@H](C)NC(=O)[C@H](CCCCN)NC(=O)[C@H](CCCN)NC(=O)[C@H](CC(=O)O)NC(=O)[C@H](CC(C)C)NC(=O)[C@](C)(CC(C)C)NC(=O)[C@@H](NC(=O)[C@H](CO)NC(=O)[C@H](Cc1ccc(O)cc1)NC(=O)[C@H](CC(=O)O)NC(=O)[C@H](CO)NC(=O)[C@@H](NC(=O)[C@](C)(Cc1ccccc1F)NC(=O)[C@@H](NC(=O)CNC(=O)[C@H](CCC(=O)O)NC(=O)C(C)(C)NC(=O)[C@@H](N)Cc1ccc(O)cc1)[C@@H](C)O)[C@@H](C)O)[C@@H](C)CC)[C@@H](C)CC)C(=O)N[C@@H](CCC(=O)O)C(=O)NCC(=O)NCC(=O)N1CCC[C@H]1C(=O)N[C@@H](CO)C(=O)N[C@@H](CO)C(=O)NCC(=O)N[C@@H](C)C(=O)N1CCC[C@H]1C(=O)N1CCC[C@H]1C(=O)N1CCC[C@H]1C(=O)N[C@@H](CO)C(=O)N[C@@H](CS)C(N)=O [Example 282] (H-Y[Aib]EGT[αMePhe(2-F)]TSDYSI[αMeL]LD[Orn]KAQ[Aib]EFI[dE]YLIEGGPSSGAPPPSC-NH2) | 0.247 nM | 0.323 nM
